How the values of series [1] were obtained: (§1) The study consisted of 8-week dietary counseling and placebo lead-in phase and a 3-year double-masked phase, for which the subjects were randomly allocated to either (i) […] of d-α-tocopheryl acetate twice daily (272 IU of vitamin E a day), ii) 250 mg slow-release ascorbic acid twice daily, (iii) both d-α-tocopheryl acetate and ascorbic acid in a single tablet, or (iv) placebo only. After the double-blind 3-year period, the study is continuing for another three years as an open study. The doses were chosen on the basis of pilot and kinetic studies (13, 15). The subjects were randomised separately in four strata of approximately equal size: (1) smoking (^35 cigarettes/day) men, (2) nonsmoking men, (3) smoking postmenopausal women, and (4) nonsmoking postmenopausal women. All subjects gave a written informed consent.

The test system of series [2] is common carotid artery intima-media thickness. The series can be described thus: ASAP study: progression of common carotid atherosclerosis (slope of ultrasonographic mean CCA-IMT). The note with it: for mean adjusted 3-year change of the mean carotid artery intima-media thickness (supplement: Yes): multivariate general linear model; for OR of atherosclerotic progression: double placebo as reference; for average unadjusted increase (slope) of the mean CCA-IMT: 3 years; for treatment effect on the proportion with progression: compared with placebo. In kind it is in vivo, human. The protocol:
All subjects gave a written informed consent.
The subjects came to baseline visits and were randomised. Follow-up visits were 6, 12, 18, 24, 30 and 36 months later. Supplements were given, returned tablets were counted and ultrasonographic assessment of common carotid artery (CCA) intima-media thickness (IMT) was carried out at all these seven visits.
Equipment: Two identical Biosound Phase 2 systems were used (Biosound, Indianapolis, Ind., USA) equipped with a 8-10 MHz annular array transducer, with a measurement precision of 0.03 mm (41). The scannings were videotaped with PAL S-VHS Panasonic AG 7330E VCR.
Scanning (imaging) procedure and videorecording: The ultrasonographic scanning of the common carotid arteries (CCA), the carotid bulbs and the proximal internal carotid artery (ICA) was performed after a supine rest of 10 minutes, the subject in the supine position. […] The scanning was started with a diagnostic examination of entire accessible carotid tree, to find the most severe lesions. Secondly, the site of the greatest IMT at baseline in the CCA far wall was located and scanned thoroughly. This area was scanned from three angles: anterolateral, lateral and posterolateral.
Measurement from videotapes: All IMT measurements (both baseline and follow-up) from videotapes were made at the same site and angle at all examinations of each subject, which was the site with the greatest IMT (in any angle) which was clearly visible at baseline in the far wall of in CCA below the bulb. At this location IMT was measured in diastole for a length of 10 mm (or shorter, if not visible) in one angle for the far wall. Most often this was the distal centimeter of CCA. All IMT measurements were carried out after the 36-month examination.
Ultrasound image analysis: Computer analysis of ultrasound images to measure IMT was performed with a reading station equipped with Data Translation DT 2861 video frame grabber interfaced to a Panasonic AG 7355 VCR. The Prosound software, utilising automated boundary detection, was used. IMT was determined as the average difference at on the average 100 points between intima/lumen and media/adventitia interface (42).
Construction of the main outcome variable: Atherosclerotic progression was defined a priori as the linear regression slope of the mean common carotid IMT over six or seven points of follow-up time (0, 6, 12, 18, 24, 30 and 36 months). For 34 subjects, one follow-up was missing. First, the mean CCA-IMT from the right and the left side was averaged, and then the slope was computed across time-specific means.
All study participants for whom the main outcome variable was available, were included in the statistical analysis. Analyses were according to the intention-to-treat principle. As the subjects were randomised separately in four strata (smoking men, non-smoking men, smoking women, non-smoking women), this stratification was maintained also in the statistical analysis. As the a priori power calculations were based on stratified analysis in men and women, the primary statistical analysis was done in these two strata (Table 6).
To test the consistency of results, the outcome variable, the slope of the mean CCA-IMT over all available follow-up assessments, was used both as a continuous variable in general linear models and as a dichotomous variable in logistic models. The cut-off for the dichotomisation was the median among all 225 men. […] Odds ratios were estimated as antilogarithms of coefficients and their confidence intervals (Cl) based on normality assumption of SPSS 8.0 for Windows.
Three dummy variables were constructed to indicate whether the participant was randomised to receive only vitamin E, only vitamin C or both vitamins, and these were entered jointly in logistic models. The comparisons in the linear models were between each treatment group and all other groups. […]

The conditions of series [3]: in vivo. Here is the method: The inventors conducted a controlled trial with a formulation including both slow release vitamin C and conventional release vitamin E (250 mg AA and 91 mg α-tocopherol). 520 men and women, smokers and non-smokers, were randomised to vitamin C slow release, vitamin E, a formulation with vitamin E and slow release vitamin C, or placebo (Table 4).
In a double-masked 2×2 factorial trial, 520 smoking and non-smoking men and postmenopausal women aged 45-69 years with serum cholesterol ^35.0 […] were randomised in these four strata to receive either 182 mg of d-α-tocopheryl acetate, 500 mg of slow-release vitamin C daily, both or placebo for three years. Atherosclerotic progression was defined as linear regression slope of the mean ultrasonographically assessed common carotid intima-media thickness (IMT) over time.
as §1
Ascorbic acid was stabilised in heparin plasma with metaphosphoric acid immediately after plasma separation, and frozen at −80° C. Combined ascorbic acid and dehydroascorbic acid were determined with an HPLC method (39). Heparin plasma for α-tocopherol was extracted with ethanol and hexane and measured by a reversed phase HPLC method (15). Cholesterol and triglycerides were determined with enzymatic […] methods (30). Serum LDL cholesterol was measured based on precipitation using polyvinyl sulfate and HDL cholesterol after precipitation with magnesium chloride (30). Plasma fibrinogen concentration was determined with a clotting method (30), plasma homocysteine with an HPLC method (44), and serum ferritin by an immunoradiometric assay (Bio Rad, Quantimune, Hercules, Calif.). Dietary intake of foods and nutrients was assessed at baseline by 4-day instructed food recording. Physical activity was assessed by 12-month checked questionaire (43). Blood pressure was measured manually in sitting position after a rest of 10 minutes, three measurements at 3 minutes' intervals.

The mark [4] stands for this setting: female, human, in vivo, 3 years.
[5] abbreviates: men (n = 225), multivariate logistic model.
The mark [6] stands for this setting: women (n = 233), multivariate logistic model.

SMILES strings stand for the structures. Where two headings read alike, the source gives them in different places.

Consider `O=C1O[C@H]([C@@H](O)CO)C(O)=C1O` [Vitamin C, ascorbic acid], for which, in series [1] (3 years), the “safety of the supplements” value is given as “safe”. Also, the “drop-outs: Adverse event” value in series [1] (setting [4]) is given as 2; in series [1] (male, human, in vivo, 3 years) it was 2. Moreover, the “drop-outs: Severe adverse event” value is 1 in series [1] (setting [4]) and 1 in series [1] (male, human, in vivo, 3 years). Further, the “drop-outs: Death” value in series [1] (men, number of subjects) is listed as 1; in series [1] (men, number of subjects, listed as vitamin C) it was “One”; in series [1] (women, number of subjects), 0. For the same molecule, the “mean adjusted 3-year change of the mean carotid artery intima-media thickness (supplement: Yes)” value is recorded as 0.0119 mm/year in series [2] (men (n = 225)) and 0.0174 mm/year in series [2] (women (n = 233)). The “OR of atherosclerotic progression” value turned out to be 0.44 in series [2] (setting [5]); 0.30 in series [2] (non-smoking men (n = 125)); 0.99 in series [2] (non-smoking women (n = 123)); 0.45 in series [2] (smoking men (n = 100)); 0.69 in series [2] (smoking women (n = 110)); 1.08 in series [2] (setting [6]). Also, the “average unadjusted increase (slope) of the mean CCA-IMT” value is listed as 0.017 mm/year in series [2] (men, placebo 0.020) and 0.017 mm/year in series [2] (women, placebo 0.016). Further, in series [2] (men), the “treatment effect on the proportion with progression” value is “non-significant”. Besides, the “effect on atherosclerotic progression” value in series [2] (smoking men) is reported as “nonsignificant trend towards protection”. Also, the “change of plasma α-tocopherol (vitamin E in plasma)” value in series [3] (female, human) is recorded as 4.0%; in series [3] (male, human), 5.1%. Also, in series [3] (male, human), the “mean plasma α-tocopherol concentration, after supplementation” value stood at 33.9 µmol/L. Moreover, in series [3] (male, human), the “mean plasma α-tocopherol concentration, initial value” was 32.3 µmol/L.
As for `CC(=O)Oc1c(C)c(C)c2c(c1C)CC[C@@](C)(CCC[C@H](C)CCC[C@H](C)CCCC(C)C)O2` [Vitamin E, d-α-tocopheryl acetate], the “safety of the supplements” value in series [1] (3 years) is recorded as “safe”. Besides, the “drop-outs: Adverse event” value in series [1] (men, number of subjects) was found to be 1; in series [1] (women, number of subjects) it was 3. The “drop-outs: Death” value in series [1] (men, number of subjects) is listed as 3; in series [1] (men, number of subjects, listed as vitamin), “three”; in series [1] (women, number of subjects), 0. Further, the “drop-outs: Severe adverse event” value was 1 in series [1] (men, number of subjects) and 2 in series [1] (women, number of subjects). In addition, the “mean adjusted 3-year change of the mean carotid artery intima-media thickness (supplement: Yes)” value was determined as 0.0118 mm/year in series [2] (men (n = 225)) and 0.0165 mm/year in series [2] (women (n = 233)). Also, the “OR of atherosclerotic progression” value in series [2] (setting [5]) was 0.56; in series [2] (non-smoking men (n = 125)), 1.07; in series [2] (non-smoking women (n = 123)) it was 1.13; in series [2] (smoking men (n = 100)), 0.21; in series [2] (smoking women (n = 110)), 0.76; in series [2] (setting [6]) it was 1.05. For the same molecule, the “average unadjusted increase (slope) of the mean CCA-IMT” value amounted to 0.018 mm/year in series [2] (men, placebo 0.020) and 0.015 mm/year in series [2] (women, placebo 0.016). Also, in series [2] (men), the “treatment effect on the proportion with progression” value is “non-significant”. In addition, the “mean plasma α-tocopherol concentration, after supplementation” value in series [3] is 60.1 µmol/L. For the same molecule, the “mean plasma α-tocopherol concentration, initial value” in series [3] was 31.7 µmol/L.

Values taken from patent US6805880B1, “Pharmaceutical delivery system for vitamin C and vitamin E and use of a combination of vitamin C and E for preventing or treating conditions involving oxidative stress” (Ferrosan A/S, priority 1999, dated 2004).
